Laboratory results: patent US8198330B2, “Therapeutic or prophylactic agent for diabetes, obesity, dyslipidemia or metabolic syndrome comprising benzylamine derivative or pharmaceutically acceptable acid addition salt thereof” (Toray Industries, Inc., priority 2008, dated 2012)

Test system: DIO mice
Experiment: Efficacy in diabetes/obesity-model mice (DIO mice): blood sugar, body weight, fat, triglyceride
Assay type: in vivo, mouse
Conditions: for Weight of the fat around the mouse testicles / Blood sugar / Increase in body weight / Triglyceride: DIO mouse; for Weight of the fat around the mouse testicles: after ITT (day 27); for Blood sugar / Increase in body weight / Triglyceride: day 26; for Triglyceride: plasma
Procedure: C57BL/6J mice grown on a solid feeding stuff containing 60% fat (D12492, Research Diets) since 4 weeks of age, (male, Charles River Laboratories, Japan, 13 weeks of age) were purchased and mice of 16 weeks of age grown on D12492 since the day of arrival were used. C57BL/6J mice of 16 weeks of age grown on normal food since the day of arrival were used in the normal group. The compound of Example 1 was diluted to 2 mg/mL or 0.6 mg/mL, as it is dissolved in physiological saline, and the solution was administered subcutaneously in an amount of 5 mL/kg, by using a disposable syringe (Terumo) and a 26G injection needle (Terumo). Physiological saline was administered in the vehicle group. The solution was administered once a day from the day of first administration (day 0) to day 26. The body weight was determined on day 26; the tail vein was cut open with a knife (disposable scalpel, FEATHER); and the blood sugar was determined with a simplified blood sugar analyzer (MediSense Precision Xceed, Abotto Japan).
The blood was collected (approximately 70 μL) from the same site by using a heparin-treated capillary (Hematokrit Kapilaren, 75 μL, […] LABORGERATE) and the collected blood was centrifuged (12,000 rpm, 7 min, 4° C.) in a hematocrit centrifuge (KUBOTA3100, Kubota Corp.) and the plasma was stored, as it is frozen in an Eppendorf tube, until it is used for measurement of triglyceride. The triglyceride measurement was carried out by using Triglyceride E-Test Wako (Wako Pure Chemical Industries). Four μL of the sample was added to 250 μL of the coloring liquid, after reaction at 37° C. for 1 hour, and the absorbance (595 nm) of the mixture was determined by using a microplate reader (Bio-Rad, Model 680). Separately, insulin tolerance test (ITT) was performed on day 27.
The insulin level was measured by using an insulin measurement kit (Lebis Insulin Mouse U, Shibayagi). Finally, HOMA-IR was also calculated from the values of fasting blood sugar and fasting insulin. The weight of the fat around the mouse testicles was also determined after measurement of ITT. Statistical treatment of the individual data obtained was carried out by a two-group test (unpaired t-test) or a multiplex comparison test (parametric Williams test).

COc1cc(CN[C@@H](C)[C@H](O)c2ccc(O)c(NS(C)(=O)=O)c2)cc(OC)c1 [Example 1, N-(5-((1R,2S)-2-(3,5-Dimethoxybenzylamino)-1-hydroxypropyl)-2-hydroxyphenyl)methanesulfonamide]
blood sugar-reducing effect (DIO mice): significant blood sugar-reducing effect | increase in body weight versus vehicle group (DIO mice): Significant suppression of increase in body weight | plasma triglyceride (TG) versus vehicle group (DIO mice): declined statistically significantly | weight of the fat around the mouse testicles versus vehicle group (DIO mice): declined significantly | Weight of the fat around the mouse testicles (3 mg/kg s.c. once a day): 2.6 ± 0.1 g | Blood sugar (3 mg/kg s.c. once a day): 177 ± 9 mg/dL | Increase in body weight (3 mg/kg s.c. once a day): 3.5 ± 0.6 g | Weight of the fat around the mouse testicles (10 mg/kg s.c. once a day): 2.3 ± 0.1 g | Blood sugar (10 mg/kg s.c. once a day): 168 ± 8 mg/dL | Increase in body weight (10 mg/kg s.c. once a day): 2.1 ± 0.5 g | Triglyceride (3 mg/kg s.c. once a day): 162 ± 14 mg/dL | Triglyceride (10 mg/kg s.c. once a day): 129 ± 9 mg/dL
